Results reported in PMC4979516, “Quinazoline-based tricyclic compounds that regulate programmed cell death, induce neuronal differentiation, and are curative in animal models for excitotoxicity and hereditary brain disease” (Cell Death Discovery, 2015).

Tests used:
[1] = target: T1, 18 kDa translocator protein (TSPO) (Rattus norvegicus, UniProt P16257); test: TSPO binding, displacement of [3H]PK 11195 in rat kidney membranes
T1 construct: 400 μl of homogenized rat kidney membranes (5 mg of homogenate/ml); from tissue; host or cells: rat kidney (homogenized membranes)
Description: After incubation for 60 min at 4 °C, samples were filtered under vacuum over Whatman GF/C filters and washed three times with 5 ml of 50 mM Tris-HCl buffer, pH 7.4. The filters were incubated in CytoScint (MP Biomedicals) and radioactivity was measured after 12 h with a 1600 CA Tri-Carb liquid scintillation analyzer (Packard). Inhibitory constant (Ki) values were calculated by the equation Ki=IC50/(1+C/Kd), where C=[^3H]

[2] = system: PC12 cells; test: Cell death of PC12 cells, glutamate with or without MGV-1 (LDH); type: cell-based, rat
Description: (2) For PC12 cells (as for U118MG cells), dose-response assays of the lethal effects of glutamate on PC12 cells established 35 mM as an optimal concentration for glutamate for induction of LDH activity in the medium in the range of 20–40% as compared with the effect of the positive control, 1% Triton X-100, the latter which is defined as causing 100% of LDH release in the medium.

[3] = system: kainic acid-injected Sprague-Dawley rats; test: Systemic kainic acid injection model in rats (seizures, hyper reactivity, hippocampal histology); type: in vivo; settings: rat
Description: Epileptic seizures in rats, including gnawing, wet dog shakes, head bobbing, forepaw abduction, rearing, forelimb clonus, loss of balance, and convulsions were induced by systemic injections of kainic acid and scored as previously described.[48],[83–85] Such induced seizures typically are accompanied by neurodegeneration in the hippocampus, amydala, pyriform cortex, followed by edema in the diencephalon, and mesencephalon.[43],[44],[86] To test the effects of pretreatment with MGV-1 on the consequences of kainic acid injections, first of all MGV-1 was dissolved in vehicle (10% (v/v) dimethylsulfoxide (DMSO) in sesame oil). After that, 8 weeks old rats received an intraperitoneal injection of 15, 7.5, or 3.75 mg of MGV-1 (per kg/rat), according to previous methods.[48] […] After the kainic acid injections, the rats were monitored continuously for 2 h for the development of epileptic symptoms.[48],[86]
For MGV-1 post-treatment, rats first received a KA injection (9 mg/kg/rat) and then a single injection of 15 mg/kg MGV-1 2 h later, that is, after the typical period for full blown seizure activity. In a single experiment, each experimental group and the vehicle control group consisted of nine rats. Then, for 1 week, daily injections of MGV-1 were given, and the rats were tested daily for hyper reactivity in response to handling.[47] Histological assays were applied 2 weeks after kainic acid injections.
For histological assays, rats that had developed seizures and had subsequently received treatment or control vehicle were sedated with ketamine (75 mg/kg) and xylazine (10 mg/kg) injections until no reflexes were seen and were then perfused with 4% of paraformaldehyde. […] The brains were taken and then stored in paraformaldehyde 4% solution at 4 °C. After 48 h, the solution was changed to 20% sucrose solution at 4 °C. Brains of rats that were post treated with MGV-1 were prepared in the same way. After the brains had sunk they were embedded in optimal cutting temperature compound, frozen with liquid nitrogen, and stored at −70 °C. The brains were cut at −18 °C on a Cryostat Leica (Wetzlar, Germany) CM3050S microtome in 40 μm sections from Bregma −2.8 to −5.8. The sections were kept in PBS without Ca^2+ and Mg^2+ with 0.5% sodium azide at 4 °C. Sections were incubated with primary antibodies against anti-NeuN to label neurons.[87] The appropriate secondary antibodies were applied with VECTASTAIN Peroxidase ABC Kits (Vector Laboratories, Burlingame, CA, USA) based on avidin–biotin, according to the manufacturer’s instructions. The labeled, floating sections were mounted on microscope slides and coverslipped applying glycerol vinyl alcohol aqueous mounting solution. For observations and micrographs, a BH2 Olympus (Tokyo, Japan) upright microscope outfitted with a Nikon (Tokyo, Japan) DSFi1 digital camera was used.

[4] = system: PC12 cells; test: Collapse of mitochondrial membrane potential (JC-1) in PC12 cells; type: cell-based, rat; settings: PC12, 50 μM MGV-1, 35 mM glutamate
Description: JC-1 was used to assay changes in Δψm, as described previously.[71],[79] Owing to charges distributed along JC-1 molecules, they pass unimpaired (charged) mitochondrial membranes and enter the mitochondrial matrix. There the J-molecules form J-aggregates, which emit at 590 nm (orange–red fluorescence). […] The monomers emit at 527 nm (green fluorescence). A decrease in the red–green fluorescence intensity ratio is an indication for mitochondrial depolarization. As a positive control, the proton ionophore carbonyl cyanide m-chlorophenylhydrazone was used as described previously.[71] Cells were collected and prepared for suspension in 10 μg/ml of JC-1 solution in PBS. After incubation at 37 °C for 30 min in the dark, the cells were washed with 0.5 ml of PBS, and the cell suspensions were analyzed with the BD FACSCalibur flow cytometer.

[5] = system: U118MG cells; test: Mitochondrial ROS / cardiolipin oxidation (NAO) assay in U118MG cells exposed to glutamate; type: cell-based, human; settings: 25 μM compound, 35 mM glutamate
Description: Cardiolipin is present in the inner mitochondrial membrane, at the contact sites with the outer mitochondrial membrane. By application of NAO, we assayed cardiolipin peroxidation as an indication of mitochondrial ROS generation, as described previously.[71] NAO binds with high affinity to non-oxidized cardiolipin in a 2 : 1 ratio, but with less affinity to oxidized cardiolipin, the latter which is reflected by lower levels of green NAO fluorescence.[78] For our study, cells were collected and centrifuged at 1200×g for 5 min, 4 °C. Cell pellets were re-suspended in 0.5 ml of 0.1 μM NAO and incubated for 30 min at 37 °C in the dark. Then, the cells were washed once with 0.5 ml PBS and transferred into 5 ml FALCON FACS tubes and analyzed with the aid of a BD FACSCalibur flow cytometer using CellQuest software (BD Biosciences, Franklin Lakes, NJ, USA).

[6] = system: PC12 cells strain #1 (polygonal cells); test: Neuronal differentiation (neurite sprouting) of PC12 strain #1; type: cell-based, rat; settings: strain #1, only polygonal cells

T1 sequence (P16257 whole entry): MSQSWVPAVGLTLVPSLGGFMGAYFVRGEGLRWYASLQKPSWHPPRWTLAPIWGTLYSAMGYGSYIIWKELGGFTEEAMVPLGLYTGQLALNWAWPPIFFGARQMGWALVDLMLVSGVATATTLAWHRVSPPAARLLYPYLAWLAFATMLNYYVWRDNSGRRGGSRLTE

With `CN(C)C(=O)Oc1nc(-c2ccccc2)nc2ccccc12` [MGV-1, 2-phenylquinazolin-4-yl dimethylcarbamate] the Ki [1] was 825 ± 315 nM, the “Cell death of PC12 cells by the compound by itself” value ([2]; 100 μM, no glutamate) was “can induce cell death” and the “Enhancement of cell death induction by glutamate” value ([2]; PC12, 50 μM MGV-1, 35 mM glutamate) was “threefold”. The “Optimal concentration as enhancer of cell death induced by glutamate” value ([2]; PC12, 35 mM glutamate, tested 0.1 nM-100 μM) was 50 µM, the “Induction of seizures by kainic acid” value ([3]; 15 and 7.5 mg/kg MGV-1 i.p. 2 h before kainic acid 9 mg/kg) was “reduction of seizure incidence by half” and the “Hyper reactivity in response to handling, post-treatment” value ([3]; MGV-1 15 mg/kg 2 h after kainic acid, then daily for 6 days) was “restores normal response to handling”. For the same compound, the “Damage in hippocampal area CA1 (NeuN labeling), post-treatment” value ([3]; MGV-1 15 mg/kg 2 h after kainic acid, then daily for a week) was “attenuated damage to area CA1, but less so than MGV-1 pretreatment”, the “Hyper reactivity in response to handling, pretreatment” value ([3]; MGV-1 2 h before kainic acid, week after injection) was “attenuates the incidence of the hyper reactivity” and the “Damage in hippocampal area CA1 (NeuN labeling), pretreatment” value ([3]; MGV-1 i.p. before kainic acid 9 mg/kg, histology 2 weeks later) was “well attenuated”. The “Enhancement of the incidence of collapse of the ΔΨm” value [4] was “threefold”, the “Prevention of cardiolipin oxidation / mitochondrial ROS generation induced by glutamate (NAO)” value [5] was “prevent cardiolipin oxidation” and the “Differentiation of PC12 strain #1 by the agent by itself” value [6] was “can be differentiated by MGV-1 by itself”.
